Measurements reported in patent publication US7655688B2, “Fused cyclic succinimide compounds and analogs thereof, modulators of nuclear hormone receptor function” (Bristol-Myers Squibb Company, priority 2001, dated 2010).
Where two headings read alike, the source gives them in different places.

Columns and labels:
[1] = molecular target: T1, AR (Rattus norvegicus, UniProt P15207); conditions: castrated rats
T1 sequence (P15207 1-902): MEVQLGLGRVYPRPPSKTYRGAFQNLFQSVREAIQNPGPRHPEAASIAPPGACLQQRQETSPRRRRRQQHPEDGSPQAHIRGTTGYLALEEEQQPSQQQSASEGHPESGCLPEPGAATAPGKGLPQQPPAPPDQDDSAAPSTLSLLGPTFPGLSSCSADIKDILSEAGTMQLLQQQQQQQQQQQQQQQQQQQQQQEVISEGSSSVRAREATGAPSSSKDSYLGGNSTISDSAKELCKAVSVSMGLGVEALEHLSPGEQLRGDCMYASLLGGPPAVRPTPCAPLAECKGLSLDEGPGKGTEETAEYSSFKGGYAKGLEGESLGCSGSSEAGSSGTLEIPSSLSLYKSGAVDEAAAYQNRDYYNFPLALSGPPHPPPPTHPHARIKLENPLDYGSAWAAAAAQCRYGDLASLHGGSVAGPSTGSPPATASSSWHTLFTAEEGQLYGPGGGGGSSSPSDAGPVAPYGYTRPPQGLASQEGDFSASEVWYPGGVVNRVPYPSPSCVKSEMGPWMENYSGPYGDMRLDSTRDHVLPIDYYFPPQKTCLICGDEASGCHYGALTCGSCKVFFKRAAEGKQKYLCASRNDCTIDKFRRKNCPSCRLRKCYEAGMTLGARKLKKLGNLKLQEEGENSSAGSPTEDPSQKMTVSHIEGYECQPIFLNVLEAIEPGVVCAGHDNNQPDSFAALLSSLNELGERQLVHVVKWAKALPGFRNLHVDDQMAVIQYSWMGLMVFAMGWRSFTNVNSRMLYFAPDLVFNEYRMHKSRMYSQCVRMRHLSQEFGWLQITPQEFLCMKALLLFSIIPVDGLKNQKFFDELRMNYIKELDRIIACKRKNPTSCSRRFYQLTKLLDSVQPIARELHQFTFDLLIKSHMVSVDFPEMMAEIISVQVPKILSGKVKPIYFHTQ
Source text: The activity of compounds of the present invention as AR agonists was investigated in an immature male rat model, a recognized test of anabolic effects in muscle and sustaining effects in sex organs for a given compound, as described in L. G. Hershberger et al., Proc. Soc. […] Nem.
The basis of this assay lies in the well-defined action of androgenic agents on the maintenance and growth of muscle tissues and sexual accessory organs in animals and man. […] J. Anat. […] Ital. Biol. Sper. […] II. […] Ital. Biol. Sper. […] As described above, the effects of androgens on maintenance of male sexual accessory organs, such as the prostate and seminal vesicles, is well described. Castration results in rapid involution and atrophy of the prostate and seminal vesicles. This effect can be reversed by exogenous addition of androgens. Since both the levator ani muscle and the male sex organs are the tissues most responsive to the effects of androgenic agents, this model is used to determine the androgen dependent reversal of atrophy in the levator ani muscle and the sex accessory organs in immature castrated rats. Sexually mature rats (200-250 g, 6-8 weeks-old, Sprague-Dawley, Harlan) were acquired castrated from the vendor (Taconic). The rats were divided into groups and treated daily for 7 to 14 days with one of the following: • 1. Control vehicle • 2. […]

[2] = molecular target: T1, AR
[3] = test system: GR induced AP-1 transrepression; assay: In vitro assay to measure GR induced AP-1 transrepression (luciferase reporter, A549 cells); format: cell-based; conditions: concentration of ≦10 μM; 10 ng/ml PMA; typical value
Description: The AP-1 assay is a cell based luciferase reporter assay. A549 cells, which contain endogenous glucocorticoid receptor, were stably transfected with an AP-1 DNA binding site attached to the luciferase gene. Cells are then grown in RPMI+10% fetal calf serum (charcoal-treated)+Penicillin/Streptomycin with 0.5 mg/ml geneticin. Cells are plated the day before the assay at approximately 40000 cells/well. On assay day, the media is removed by aspiration and 20 μl assay buffer (RPMI without phenol red+10% FCS (charcoal-treated)+Pen/Strep) is added to each well. At this point either 20 μl assay buffer (control experiments), the compounds of the present invention (“test compounds”) (dissolved in DMSO and added at varying concentrations) or dexamethasome (100 nM in DMSO, positive control) are added to each well. The plates are then pre-incubated for 15 minutes at 37° C., followed by stimulation of the cells with 10 ng/ml PMA. The plates are then incubated for 7 hrs at 37° C. after which 40 μl luciferase substrate reagent is added to each well. Activity is measured by analysis in a luminometer as compared to control experiments treated with buffer or dexamethasome. […] The control, dexamethasone, at a concentration of ≦10 μM typically suppresses activity by 65%.

Compound | EC50 (increase in organ weight) ([1]; dosing for 3 days) [mg] | potency relative to free T ([1]; organ weight) | ED80 (organ weight increase) ([2]; immature castrated rat model) [mg] | EC50 (increase in organ weight) ([2]; immature castrated rats, dosing for 3 days) [mg] | potency relative to free T ([2]; immature castrated rats, organ weight) | suppression of activity (% inhibition of the reporter system vs buffer control with PMA alone) [3] [%]
CCC(=O)O[C@H]1CC[C@H]2[C@@H]3CCC4=CC(=O)CC[C@]4(C)[C@H]3CC[C@]12C [TP, Testosterone Propionate] | ~0.03 | 10-30 fold | 0.1 | ~0.03 | 10-30 fold | 
C[C@@H]1C[C@H]2[C@@H]3CCC4=CC(=O)C=C[C@]4(C)[C@@]3(F)[C@@H](O)C[C@]2(C)[C@@]1(O)C(=O)CO [dexamethasone] |  |  |  |  |  | 65
